Laboratory results published in patent US20230025510A1, “BIARYL ETHER-TYPE QUINAZOLINE DERIVATIVES” (DAIICHI SANKYO COMPANY, LIMITED, priority 2018, published 2023).

Key:
Assay type in all cases: cell-based
[1] = system: Ba/F3-Mock cells; assay: Cell proliferation suppression test (CellTiter-Glo, GI50), Ba/F3-Mock; details: Mus musculus, BaF3, 72 h, 5 ng/mL IL-3, 3 days, N=4
Method: (§1) Cell proliferation suppression test Ba/F3-Mock, Ba/F3-EGFR WT, Ba/F3-EGFR ins. ASV, and Ba/F3-EGFR ins. SVD cell lines were cultured based on a culture medium of 10% FBS-containing RPMI 1640 supplemented with 1.5 ug/mL puromycin, and 5 ng/mL IL-3 and 100 ng/mL of EGF were further added to the culture solution for Ba/F3-Mock and Ba/F3-EGFR WT, respectively. The cells were cultured in a CO2 incubator set at 37° C., 5% CO2. Specimens prepared by dilution were seeded into 384-well tissue culture plates with Echo555 (Labcyte Inc.), and the cells were seeded thereto at 400 cells/well for Ba/F3-Mock, Ba/F3-EGFR WT, and Ba/F3-EGFR ins. SVD and at 200 cells/well for Ba/F3-EGFR ins. ASV (day 0), then they were cultured for an additional 3 days. On the day of the compound addition (day 0) and 3 days after the compound addition (day 3), ATP quantity was measured with CellTiter-Glo (registered trademark) 2.0 (Promega Corporation.), and used as an indicator of cell quantity (N=4). In the test, puromycin-free culture medium was used. Concentrations at which cell proliferation from day 0 to day 3 was inhibited by 50% (GIso) were calculated with EXCEL.

[2] = system: Ba/F3-EGFR WT cells; assay: Cell proliferation suppression test (CellTiter-Glo, GI50), Ba/F3-EGFR WT; details: Mus musculus, 72 h, 100 ng/mL EGF, 3 days, N=4
Method: as §1

[3] = system: Ba/F3-EGFR ins. ASV cells; assay: Cell proliferation suppression test (CellTiter-Glo, GI50), Ba/F3-EGFR ins. ASV; details: Mus musculus, 72 h, 3 days, N=4
Method: as §1

[4] = system: Ba/F3-EGFR ins. SVD cells; assay: Cell proliferation suppression test (CellTiter-Glo, GI50), Ba/F3-EGFR ins. SVD; details: Mus musculus, 72 h, 3 days, N=4
Method: as §1

| Structure (SMILES) | GI50 [2] | GI50 [3] | GI50 [4] | GI50 [1] |
| --- | --- | --- | --- | --- |
| C=CC(=O)N1CCC(Oc2cc3c(Nc4ccc(Oc5nc(C(=O)NC(C)(C)C)cs5)cc4F)ncnc3cc2OC)CC1 [Example 15, N-tert-Butyl-2-{3-fluoro-4-[(7-methoxy-6-{[1-(prop-2-enoyl)piperidin-4-yl]oxy}quinazolin-4-yl)amino]phenoxy}-1,3-thiazole-4-carboxamide] | 77.3 nM | 12.2 nM | 5.5 nM | > 10000 nM |
| C=CC(=O)N1CCC(Oc2cc3c(Nc4ccc(Oc5cccc(-c6nnc(C)o6)c5)cc4Cl)ncnc3cc2OC)CC1 [Example 13, 1-{4-[(4-{2-Chloro-4-[3-(5-methyl-1,3,4-oxadiazol-2-yl)phenoxy]anilino}-7-methoxyquinazolin-6-yl)oxy]piperidin-1-yl}prop-2-en-1-one] | 854 nM | 44.5 nM | 54.1 nM | 8280 nM |
| C=CC(=O)N1CCC(Oc2cc3c(Nc4ccc(Oc5ccn(-c6cnc(OC)nc6)n5)cc4F)ncnc3cc2OC)CC1 [Example 14, 1-(4-{[4-(2-Fluoro-4-{[1-(2-methoxypyrimidin-5-yl)-1H-pyrazol-3-yl]oxy}anilino)-7-methoxyquinazolin-6-yl]oxy}piperidin-1-yl)prop-2-en-1-one] | 429 nM | 13.7 nM | 13.5 nM | 5950 nM |
| [2H]C([2H])([2H])C(NC(=O)n1ccc(Oc2ccc(Nc3ncnc4cc(OC)c(OC5CCN(C(=O)C=C)CC5)cc34)c(F)c2)n1)(C([2H])([2H])[2H])C([2H])([2H])[2H] [Example 25, 3-{3-Fluoro-4-[(7-methoxy-6-{[1-(prop-2-enoyl)piperidin-4-yl]oxy}quinazolin-4-yl)amino]phenoxy}-N-[2-(^2H3)methyl(^2H6)propan-2-yl]-1H-pyrazole-1-carboxamide] | 180 nM | 18.8 nM | 12.4 nM | > 10000 nM |
| C=CC(=O)N1CCC(Oc2cc3c(Nc4ccc(Oc5ccn(C(=O)NC6(C(F)(F)F)CC6)n5)cc4F)ncnc3cc2OC)CC1 [Example 22, 3-{3-Fluoro-4-[(7-methoxy-6-{[1-(prop-2-enoyl)piperidin-4-yl]oxy}quinazolin-4-yl)amino]phenoxy}-N-[1-(trifluoromethyl)cyclopropyl]-1H-pyrazole-1-carboxamide] | 102 nM | 14.5 nM | 12.8 nM | 8620 nM |
| COc1cc2ncnc(Nc3ccc(Oc4ccn(C(=O)N5CCCC5)n4)cc3F)c2cc1NC(=O)/C=C/CN(C)C [Example 26, (2E)-4-(Dimethylamino)-N-[4-(2-fluoro-4-{[1-(pyrrolidin-1-ylcarbonyl)-1H-pyrazo1-3-yl]oxy}anilino)-7-methoxyquinazolin-6-yl]but-2-enamide] | 191 nM | 17.5 nM | 53.7 nM | 1060 nM |
| C=CC(=O)N1CCC(Oc2cc3c(Nc4ccc(Oc5ccn(-c6cnc(C7CC7)nc6)n5)cc4F)ncnc3cc2OC)CC1 [Example 10, 1-(4-{[4-(4-{[1-(2-cyclopropylpyrimidin-5-yl)-1H-pyrazol-3-yl]oxy}-2-fluoroanilino)-7-methoxyquinazolin-6-yl]oxy}piperidin-1-yl)prop-2-en-1-one] | 212 nM | 11.9 nM | 7.6 nM | 6170 nM |
| C=CC(=O)N1CCC(Oc2cc3c(Nc4ccc(Oc5cccc(C(=O)NC(C)(C)C)c5)cc4F)ncnc3cc2OC)CC1 [Example 1, N-tert-Butyl-3-{3-fluoro-4-[(7-methoxy-6-{[1-(prop-2-enoyl)piperidin-4-yl]oxy}quinazolin-4-yl)amino]phenoxy}benzamide] | 115 nM | 15.5 nM | 8.9 nM | 7900 nM |
| C=CC(=O)N1CCC(Oc2cc3c(Nc4ccc(Oc5ccn(-c6cnc(C)c(F)c6)n5)cc4F)ncnc3cc2OC)CC1 [Example 27, 1-(4-{[4-(2-Fluoro-4-{[1-(5-fluoro-6-methylpyridin-3-yl)-1H-pyrazol-3-yl]oxy}anilino)-7-methoxyquinazolin-6-yl]oxy}piperidin-1-yl)prop-2-en-1-one] | 249 nM | 11.6 nM | 11.1 nM | 8690 nM |

Second part, led by results:

| GI50 [2] | GI50 [3] | GI50 [4] | Structure (SMILES) | GI50 [1] |
| --- | --- | --- | --- | --- |
| 441 nM | 12.9 nM | 10.3 nM | COc1cc2ncnc(Nc3ccc(Oc4nn(CC(=O)NC(C)(C)C)cc4F)cc3Cl)c2cc1NC(=O)/C=C/CN1CCC(F)C1 (racemic) [Example 55, rac-(2E)-N-{4-[4-({1-[2-(tert-Butylamino)-2-oxoethyl]-4-fluoro-1H-pyrazol-3-yl}oxy)-2-chloroanilino]-7-methoxyquinazolin-6-yl}-4-(3-fluoropyrrolidin-1-yl)but-2-enamide] | 4290 nM |
| 468 nM | 11.9 nM | 7.4 nM | COc1cc2ncnc(Nc3ccc(Oc4nn(CC(=O)NC(C)(C)C)cc4F)cc3F)c2cc1NC(=O)/C=C/CN1CC(F)C1 [Example 59, (2E)-N-{4-[4-({1-[2-(tert-Butylamino)-2-oxoethyl]-4-fluoro-1H-pyrazol-3-yl}oxy)-2-fluoroanilino]-7-methoxyquinazolin-6-yl}-4-(3-fluoroazetidin-1-yl)but-2-enamide] | > 10000 nM |
| 497 nM | 11.9 nM | 10.7 nM | COc1cc2ncnc(Nc3ccc(Oc4nn(CC(=O)NC(C)(C)C)cc4F)cc3F)c2cc1NC(=O)/C=C/CN1CC(OC)C1 [Example 60, (2E)-N-{4-[4-({1-[2-(tert-Butylamino)-2-oxoethyl]-4-fluoro-1H-pyrazol-3-yl}oxy)-2-fluoroanilino]-7-methoxyquinazolin-6-yl}-4-(3-methoxyazetidin-1-yl)but-2-enamide] | 6030 nM |
| 145 nM | 16.4 nM | 73.1 nM | COc1cc2ncnc(Nc3ccc(Oc4nc(C(=O)NC(C)(C)C)cs4)cc3F)c2cc1NC(=O)/C=C/CN(C)C [Example 47, N-tert-Butyl-2-{4-[(6-{[(2E)-4-(dimethylamino)but-2-enoyl]amino}-7-methoxyquinazolin-4-yl)amino]-3-fluorophenoxy}-1,3-thiazole-4-carboxamide] | 816 nM |
| 261 nM | 6.5 nM | 4.7 nM | COc1cc2ncnc(Nc3ccc(Oc4nn(CC(=O)NC(C)(C)C)cc4F)cc3F)c2cc1NC(=O)/C=C/CN(C)C [Example 46, (2E)-N-{4-[4-({1-[2-(tert-Butylamino)-2-oxoethyl]-4-fluoro-1H-pyrazol-3-yl}oxy)-2-fluoroanilino]-7-methoxyquinazolin-6-yl}-4-(dimethylamino)but-2-enamide] | 3090 nM |
| 377 nM | 12 nM | 10 nM | C=CC(=O)N1CCC(Oc2cc3c(Nc4ccc(Oc5nc(-c6cnc(C)nc6)cs5)cc4F)ncnc3cc2OC)CC1 [Example 36, 1-(4-{[4-(2-Fluoro-4-{[4-(2-methylpyrimidin-5-yl)-1,3-thiazol-2-yl]oxy}anilino)-7-methoxyquinazolin-6-yl]oxy}piperidin-1-yl)prop-2-en-1-one] | > 10000 nM |
| 241 nM | 15.5 nM | 12.8 nM | C=CC(=O)N1CCC(Oc2cc3c(Nc4ccc(Oc5ccn(-c6ccc(C7CC7)nc6)n5)cc4F)ncnc3cc2OC)CC1 [Example 31] | > 10000 nM |
| 638 nM | 8.1 nM | 4.9 nM | COc1cc2ncnc(Nc3ccc(Oc4nn(CC(=O)NC(C)(C)CF)cc4F)cc3Cl)c2cc1NC(=O)/C=C/CN(C)C [Example 48, (2E)-N-(4-{2-Chloro-4-[(4-fluoro-1-{2-[(1-fluoro-2-methylpropan-2-yl)amino]-2-oxoethyl}-1H-pyrazol-3-yl)oxy]anilino}-7-methoxyquinazolin-6-yl)-4-(dimethylamino) but-2-enamide] | 3170 nM |
| 732 nM | 20.7 nM | 21.1 nM | COc1cc2ncnc(Nc3ccc(Oc4cccc(CC(=O)NC(C)(C)C)c4)cc3F)c2cc1NC(=O)/C=C/CN1CCOCC1 [Example 49, (2E)-N-[4-(4-{3-[2-(tert-Butylamino)-2-oxoethyl]phenoxy}-2-fluoroanilino)-7-methoxyquinazolin-6-yl]-4-(morpholin-4-yl)but-2-enamide] | > 10000 nM |
| 276 nM | 20.5 nM | 13.7 nM | C=CC(=O)N1CCC(Oc2cc3c(Nc4ccc(Oc5nc(-c6ccc(CC)nc6)cs5)cc4F)ncnc3cc2OC)CC1 [Example 34, 1-(4-{[4-(4-{[4-(6-Ethylpyridin-3-yl)-1,3-thiazol-2-yl]oxy}-2-fluoroanilino)-7-methoxyquinazolin-6-yl]oxy}piperidin-1-yl)prop-2-en-1-one] | > 10000 nM |
| 163 nM | 11.3 nM | 5.8 nM | C=CC(=O)N1CCC(Oc2cc3c(Nc4ccc(Oc5nc(-c6nnc(C(C)C)o6)cs5)cc4F)ncnc3cc2OC)CC1 [Example 33, 1-[4-({4-[2-Fluoro-4-({4-[5-(propan-2-yl)-1,3,4-oxadiazol-2-yl]-1,3-thiazol-2-yl}oxy)anilino]-7-methoxyquinazolin-6-yl}oxy)piperidin-1-yl]prop-2-en-1-one] | > 10000 nM |
